The values below come from PubChem BioAssay (NCI).

Where “and” joins values, the source holds several entries; their conditions need not be identical. Equal entries are not always repeated.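 How tested: cells in 96-well plates exposed to compound for 48 hours at five concentrations. GI50 = concentration required for 50% inhibition of growth. TGI marks complete inhibition of growth.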

The experiment relates to MDA-MB-468 breast. The experiment in a line: NCI-60 cell line screen, 48 h.
As for `COc1ccc2c(c1)O/C(=C\c1cccc(OCC(=O)Nc3nc4ccccc4s3)c1)C2=O`, the GI50 was 6.04 µM and the TGI is more than 100 µM.
As for `O=C(CC12CC3CC(CC(C3)C1)C2)NCCOCCOCCNC(=O)c1cc2c(o1)C(=O)c1ccccc1C2=O`, the GI50 is 1.21 µM and the TGI was determined as 3.3 µM.
Take `Cn1ncc2cc(-c3cnc(N)c(Cl)c3N3CCC4(CCNC4=O)CC3)ccc21`: the GI50 is 16.4 µM and the TGI was found to be 63.1 µM.
The corresponding values for `CN1CCN(c2ccc(Nc3nc(NCCCNS(=O)(=O)c4cccc5ccccc45)c4sccc4n3)cc2)CC1` are 2.1 µM and 6.23 µM.
As for `CO/N=C(\c1ccccc1)c1cnn(-c2ccccc2)c1N`, the GI50 is more than 25 µM and the TGI was more than 25 µM.
Take `OCC1SC(n2cnc3cncnc32)C(O)C1O` (centres undefined): the GI50 is more than 100 µM and the TGI was more than 100 µM.
Consider `CCOc1ccc(NC(=O)Nc2cc(C(C)C)ccc2C)cc1`, for which the GI50 is 5.67 µM and the TGI is 51.8 µM.
The corresponding values for `Cc1c(Cl)cccc1NC(=O)CC1Sc2ccccc2NC1=O` (centres undefined) are 12.8 µM and 37.4 µM.
As to `Cn1cc(-c2cc3c(Nc4ccc(CC(=O)Nc5cc(C(C)(C)C)on5)cc4)ncnc3[nH]2)cn1`, the GI50 is 0.325 µM and 0.242 µM; the TGI is 1.08 µM and 0.737 µM.
With `CC1(C)CCC(S(=O)(=O)c2ccc3c(c2)/C(=N\O)c2cc(S(=O)(=O)N4CCC(O)(c5cccc(C(F)(F)F)c5)CC4)ccc2-3)CC1`, the GI50 is 0.0176 µM and the TGI turned out to be 0.0356 µM.
On the same counts, the results for `COc1cnc2c(c1)C(=O)c1c-2n(CCCn2ccnc2)c(=O)c2cc(OC)c(OC)cc12` are 0.0511 µM and 0.358 µM.
As for `Cn1ncc2c(Nc3ccc(Br)cc3)nc(Nc3ccc(Br)cc3)nc21`, the GI50 is 2.11 µM and the TGI is 7.78 µM.
The corresponding values for `COc1cc(-c2c3c(cn2S(=O)(=O)c2ccccc2)-c2nc(N)sc2CC3)cc(OC)c1OC` are 0.426 µM and 22.2 µM.
`O=C(NCc1cn(Cc2cccc(Oc3ccccc3)c2)nn1)c1cccnc1Nc1ccccc1`: the GI50 is 2.88 µM and the TGI stood at 57.4 µM.
In the case of `O=C1Nc2ccc(Cl)cc2/C1=C\c1c(-c2ccc(F)cc2)nc2ccccn12`, the GI50 was 2.08 µM and the TGI was 6.19 µM.
The corresponding values for `ClCCN(CCCl)Cc1ccc(Nc2ccnc3cc(Cl)ccc23)cc1` are 0.702 µM and 2.99 µM.
On the same counts, the results for `CCCOC(=O)N[C@H]1CCc2c(Br)c(OC)c(OC)c(OC)c2-c2ccc(SC)c(=O)cc21` are less than 0.01 µM and 18.1 µM.
As for `COC[C@H]1C(=O)NCC(=O)N2NCCC[C@H]2C(=O)N(O)[C@H](C)C(=O)O[C@@H](C(C)C)[C@H](NC(=O)[C@](C)(O)[C@]2(O)CC[C@@H](CC(C)C)[C@H](C)O2)C(=O)N2NCCC[C@@H]2C(=O)N1O`, the GI50 was 0.014 µM and the TGI was 0.0311 µM.
As for `COc1ccc(/C=C2/CN(C(=O)c3ccccc3F)C/C(=C\c3ccc(OC)cc3)C2=O)cc1`, the GI50 is 1.91 µM and the TGI came to 4.49 µM.
Regarding `O=C1C(=O)c2ccc(Br)cc2-c2cc(Br)ccc21`, the GI50 is 0.604 µM and the TGI is 1.43 µM.
On the same counts, the results for `C=C1C(=O)O[C@H]2[C@H]1CC/C(COC(=O)OCCCCCOC(=O)OC/C1=C/CC[C@@]3(C)O[C@H]3[C@H]3OC(=O)C(=C)[C@@H]3CC1)=C\CC[C@@]1(C)O[C@@H]21` are 0.186 µM and 0.458 µM.
Consider `COc1ccc(-c2nc(-c3nc4ccc(F)cc4[nH]3)cc3c2[nH]c2ccccc23)cc1`, for which the GI50 is 2.08 µM and the TGI is more than 100 µM.
As to `Cc1ccc(S(=O)(=O)N(C)C)cc1[N+](=O)[O-]`, the GI50 is more than 100 µM and the TGI was more than 100 µM.
Regarding `O=C(NNc1nc2cc(F)ccc2n2c(CN3CCOCC3)ccc12)c1ccccc1`, the GI50 was 0.193 µM and the TGI is 0.894 µM.
The corresponding values for `O=C1Nc2ccc(F)c3c(OCCO)cc(-c4ccc[nH]4)c1c23` are 0.528 µM and 1.83 µM.
The corresponding values for `O=C1C=C(SCCO)C(=O)c2ccccc21` are 1.51 µM and 3.46 µM.
Turning to `O=S(=O)(Nc1ccc(-c2nc(-c3cccc(OCCN4CCOCC4)c3)c(-c3ccnc(Br)c3)[nH]2)cc1)c1ccccc1`, the GI50 was 1.85 µM and the TGI came out at 5.24 µM.
As for `FC(F)(F)c1cc(Nc2ccc3c(OCCCN4CCOCC4)cccc3n2)ccc1Cl`, the GI50 is 2.17 µM and the TGI is 5.92 µM.
On the same counts, the results for `COc1ccc2c(c1)Oc1nc(N)c(C#N)c(N)c1C2Sc1ccc(SC)cc1` (centres undefined) are 1.75 µM and 3.59 µM.
Turning to `Cc1nc2sc(C(=O)Nc3cccc4ccccc34)c(N)c2cc1C(C)O` (centres undefined), the GI50 is 0.126 µM and the TGI was 0.416 µM.
The corresponding values for `c1ccc2c(c1)O[As](O[As]1Oc3ccccc3O1)O2` are 1.25 µM and 4.04 µM.
The corresponding values for `CCOC(=O)C1(Cc2ccc(C)cc2)Cc2ccc(C)cc2C1=O` (centres undefined) are 10.4 µM and 37.4 µM.
On the same counts, the results for `Cc1cc(N(CCCl)CCCl)ccc1C=Nc1cccnc1` are 0.0712 µM and 0.521 µM.
On to `COc1cc(O)c2c(c1)[C@H]1O[C@@H]1C[C@H](O)[C@H](O)C(=O)/C=C\C[C@H](C)OC2=O`, for which the GI50 was 1.1 µM and the TGI turned out to be 5.64 µM.
In the case of `OCCN1CCN(CCCN2c3ccccc3Sc3ccc(C(F)(F)F)cc32)CC1`, the GI50 is 0.827 µM and 3.63 µM and 2.63 µM; the TGI was 2.08 µM and 15.4 µM and 11.3 µM.
Regarding `C[C@@H]1O[C@@H](O[C@H]2C[C@@H](O)[C@]3(CO)C4C(CC[C@]3(O)C2)[C@@]2(O)CC[C@H](C3=CC(=O)OC3)[C@@]2(C)C[C@H]4O)[C@H](O)[C@H](O)[C@H]1O` (some centres undefined), the GI50 was 0.0841 µM and the TGI is 0.187 µM.
The corresponding values for `COc1ccc(OC)c(/C=C/[N+](=O)[O-])c1` are 1.22 µM and 2.68 µM.
On the same counts, the results for `Cc1ccc(NS(=O)(=O)c2ccc(-c3cnc(C4CC4)o3)cc2)cc1` are 1.17 µM and 5.83 µM.
The corresponding values for `COc1ccc(-c2cc3c4c(nc5ccccc5c4c2)CC(c2cc(OC)c(OC)c(OC)c2)O3)cc1` (centres undefined) are 2.63 µM and 10.5 µM.
Turning to `COCCNCC(O)Cn1c2ccc(Cl)cc2c2cc(Cl)ccc21` (centres undefined), the GI50 is 1.78 µM and the TGI came to 3.85 µM.
The corresponding values for `O=C(c1ccccc1)c1ccc(-c2ccc(O)cc2)cc1` are 1.94 µM and 8.86 µM.
Regarding `COC1=CC(c2ccc[nH]2)=N/C1=C\c1[nH]c(C)c(C(=O)CCC(=O)Oc2ccc3c(c2)CCC2C3CC[C@]3(C)C(=O)CC[C@@H]23)c1C` (some centres undefined), the GI50 is 16.9 µM and the TGI was more than 100 µM.
The corresponding values for `Brc1c[n+](Cc2ccc3ccccc3c2)cn1Cc1ccc2ccccc2c1` are 0.624 µM and 2.57 µM.
On the same counts, the results for `CN(C(=O)c1ccc(F)cc1C(F)(F)F)C1CCN(c2nnc(-c3ccnn3C)c3ccccc23)CC1` are 7.1 µM and 61.4 µM.
In the case of `CCC(=O)Sc1ccccc1C(=O)Nc1ccc(Cl)cc1`, the GI50 was 9.97 µM and the TGI is more than 100 µM.
Take `CCCC[C@@H]1NC(=O)[C@H](CCCCN)NC(=O)[C@H](CCCNC(=N)N)NC(=O)[C@H](CC(C)C)NC(=O)[C@@H](NC(=O)[C@H](Cc2cccc(Cl)c2)NC(=O)[C@@H]2CCCN2C(=O)[C@@H](NC(C)=O)C(C)C)CCSSC[C@@H](C(=O)N[C@@H](CCCCN)C(=O)N2CCC[C@H]2C(=O)N2CCC[C@H]2C(=O)N[C@@H](CCC(=O)O)C(N)=O)NC(=O)[C@H](Cc2ccccc2)NC(=O)[C@H](CO)NC(=O)[C@H](C)NC(=O)[C@@H]2CCCN2C1=O`: the GI50 was more than 50 µM and the TGI was more than 50 µM.
With `CS(=O)(=O)c1nccc(-c2c(-c3cccc(OCc4ccc(F)cc4)c3)nc3sccn23)n1`, the GI50 was 1.99 µM and the TGI was 3.98 µM.
